Source: the NIST ThermoML archive (doi:10.1021/je800234h)

Assay: mn = molality of the nth substance listed, in mol/kg
Details: Liquid, Vibrating tube method

[Ca+2].[Cl-].[Cl-] [calcium chloride] + CCO
Details	mass density [kg/m3]
298.15 K, 210 kPa, m1 = 1.55	901.58
298.15 K, 260 kPa, m1 = 1.266	881.44
298.15 K, 280 kPa, m1 = 0.1743	800.14
298.15 K, 480 kPa, m1 = 0.09327	793.4
298.15 K, 670 kPa, m1 = 0.9896	861.73
298.15 K, 1020 kPa, m1 = 0.4379	820.65
298.15 K, 1170 kPa, m1 = 0.6899	839.86
298.15 K, 5010 kPa, m1 = 0.6899	843.06
298.15 K, 5020 kPa, m1 = 1.55	905.41
298.15 K, 5030 kPa, m1 = 0.4379	824.03
298.15 K, 5060 kPa, m1 = 0.09327	797.34
298.15 K, 5060 kPa, m1 = 1.266	885.32
298.15 K, 6330 kPa, m1 = 0.9896	866.36
298.15 K, 6580 kPa, m1 = 0.1743	804.98
298.15 K, 10030 kPa, m1 = 0.09327	801.45
298.15 K, 10410 kPa, m1 = 1.55	909.48
298.15 K, 10450 kPa, m1 = 0.4379	828.43
298.15 K, 10830 kPa, m1 = 0.9896	869.87
298.15 K, 10850 kPa, m1 = 1.266	889.78
298.15 K, 11050 kPa, m1 = 0.6899	847.88
298.15 K, 11330 kPa, m1 = 0.1743	808.85
298.15 K, 14860 kPa, m1 = 1.266	892.71
298.15 K, 15090 kPa, m1 = 0.9896	873.05
298.15 K, 15120 kPa, m1 = 0.6899	850.99
298.15 K, 15240 kPa, m1 = 1.55	912.94
298.15 K, 15470 kPa, m1 = 0.09327	805.77
298.15 K, 15480 kPa, m1 = 0.4379	832.33
298.15 K, 15720 kPa, m1 = 0.1743	812.29
298.15 K, 20020 kPa, m1 = 0.9896	876.57
298.15 K, 20080 kPa, m1 = 1.266	896.35
298.15 K, 20130 kPa, m1 = 0.6899	854.64
298.15 K, 20260 kPa, m1 = 1.55	916.34
298.15 K, 20460 kPa, m1 = 0.4379	836.02
298.15 K, 20490 kPa, m1 = 0.1743	815.89
298.15 K, 20640 kPa, m1 = 0.09327	809.69
298.15 K, 25010 kPa, m1 = 1.55	919.38
298.15 K, 25130 kPa, m1 = 0.9896	880.03
298.15 K, 25310 kPa, m1 = 0.6899	858.24
298.15 K, 25390 kPa, m1 = 0.09327	813.15
298.15 K, 25410 kPa, m1 = 1.266	899.86
298.15 K, 25750 kPa, m1 = 0.4379	839.75
298.15 K, 25820 kPa, m1 = 0.1743	819.73
298.15 K, 30060 kPa, m1 = 1.266	902.74
298.15 K, 30110 kPa, m1 = 0.9896	883.22
298.15 K, 30120 kPa, m1 = 0.6899	861.41
298.15 K, 30190 kPa, m1 = 0.09327	816.48
298.15 K, 30420 kPa, m1 = 1.55	922.62
298.15 K, 30640 kPa, m1 = 0.4379	843.03
298.15 K, 31460 kPa, m1 = 0.1743	823.58
298.15 K, 34210 kPa, m1 = 0.6899	863.97
298.15 K, 35050 kPa, m1 = 1.55	925.22
298.15 K, 35340 kPa, m1 = 0.1743	826.11
298.15 K, 35510 kPa, m1 = 0.9896	886.47
298.15 K, 35640 kPa, m1 = 0.09327	820.09
298.15 K, 35830 kPa, m1 = 0.4379	846.33
298.15 K, 35910 kPa, m1 = 1.266	906.14
298.15 K, 39770 kPa, m1 = 0.6899	867.27
298.15 K, 39860 kPa, m1 = 0.9896	888.93
298.15 K, 39920 kPa, m1 = 0.09327	822.78
298.15 K, 39960 kPa, m1 = 1.55	927.8
298.15 K, 39970 kPa, m1 = 0.4379	848.83
298.15 K, 39980 kPa, m1 = 1.266	908.34
298.15 K, 40180 kPa, m1 = 0.1743	829.13
323.15 K, 150 kPa, m1 = 0.09327	771.32
323.15 K, 240 kPa, m1 = 0.1743	777.83
323.15 K, 310 kPa, m1 = 1.266	857.3
323.15 K, 450 kPa, m1 = 0.4379	798.42
323.15 K, 520 kPa, m1 = 1.55	876.88
323.15 K, 1060 kPa, m1 = 0.6899	817.18
323.15 K, 1570 kPa, m1 = 0.9896	839.21
323.15 K, 4980 kPa, m1 = 0.4379	802.82
323.15 K, 5060 kPa, m1 = 0.1743	782.74
323.15 K, 5070 kPa, m1 = 1.266	861.31
323.15 K, 5120 kPa, m1 = 1.55	881.08
323.15 K, 5160 kPa, m1 = 0.9896	842.61
323.15 K, 5240 kPa, m1 = 0.09327	776.5
323.15 K, 5300 kPa, m1 = 0.6899	821.26
323.15 K, 9780 kPa, m1 = 0.4379	807.29
